Laboratory results published in patent US11098052B2, “4-azapodophylotoxins compounds” (Arizona Board of Regents on behalf of Arizona State …, priority 2016, dated 2021).
≈ marks a conversion by molar mass, not a printed value. Read-outs that look alike come from different tables or passages of the source.

Legend:
[1] = system: P388 murine lymphocytic leukemia cell line; test: Murine P388 lymphocytic leukemia inhibitory activity; assay type: cell-based; conditions: Mus musculus
BXPC-3 (pancreas) = test: Human cancer cell growth inhibition, sulforhodamine B assay, BXPC-3; assay type: cell-based; conditions: read-out: Growth Inhibition of Human Cancer Cell Lines (GI50), BXPC-3
Experimental: (§1) Cancer Cell Line Procedures. The human cancer cell growth inhibition data were determined using the standard sulforhodamine B assay of the US National Cancer Institute as previously described.^35 In short, cells in a 5% fetal bovine serum/RPMI1640 medium were inoculated in 96-well plates and incubated for 24 h. Next, serial dilutions of the samples were added. After 48 h, the plates were fixed with trichloroacetic acid, stained with sulforhodamine B, and read with an automated microplate reader. A growth inhibition of 50% (GI50 or the drug concentration causing a 50% reduction in the net protein increase) was determined from optical density data employing Immunosoft® software.

MCF-7 (breast) = test: Human cancer cell growth inhibition, sulforhodamine B assay, MCF-7; assay type: cell-based; conditions: read-out: Growth Inhibition of Human Cancer Cell Lines (GI50), MCF-7
Experimental: as §1

SF-268 (CNS) = test: Human cancer cell growth inhibition, sulforhodamine B assay, SF-268; assay type: cell-based; conditions: read-out: Growth Inhibition of Human Cancer Cell Lines (GI50), SF-268
Experimental: as §1

NCI-H460 (lung) = test: Human cancer cell growth inhibition, sulforhodamine B assay, NCI-H460; assay type: cell-based; conditions: read-out: Growth Inhibition of Human Cancer Cell Lines (GI50), NCI-H460
Experimental: as §1

KM20L2 (colon) = test: Human cancer cell growth inhibition, sulforhodamine B assay, KM20L2; assay type: cell-based; conditions: read-out: Growth Inhibition of Human Cancer Cell Lines (GI50), KM20L2
Experimental: as §1

DU-145 (prostate) = test: Human cancer cell growth inhibition, sulforhodamine B assay, DU-145; assay type: cell-based; conditions: read-out: Growth Inhibition of Human Cancer Cell Lines (GI50), DU-145
Experimental: as §1

[2] = P388, read-out: Murine P388 Lymphocytic Leukemia Inhibitory Activity (ED50)

| IC50 ([1]; P388 cell line, read-out: Murine P388 Lymphocytic Leukemia Inhibitory Activity (ED50)) [µg/mL] | GI50 (BXPC-3 (pancreas); BXPC-3 pancreas, 48 h, sulforhodamine B) [µg/mL] | GI50 (MCF-7 (breast); MCF7, MCF-7 breast, 48 h, sulforhodamine B) [µg/mL] | GI50 (SF-268 (CNS); SF-268 CNS, 48 h, sulforhodamine B) [µg/mL] | GI50 (NCI-H460 (lung); NCI-H460 lung, 48 h, sulforhodamine B) [µg/mL] | GI50 (KM20L2 (colon); KM-20L2, KM20L2 colon, 48 h, sulforhodamine B) [µg/mL] | GI50 (DU-145 (prostate); DU-145 prostate, 48 h, sulforhodamine B) [µg/mL] | Structure (SMILES) | melting point | IC50 [1, 2] [µg/mL] | GI50 (BXPC-3 (pancreas); BXPC-3, 48 h) [µg/mL] | GI50 (MCF-7 (breast); MCF7, 48 h) [µg/mL] | GI50 (SF-268 (CNS); SF-268, 48 h) [µg/mL] | GI50 (NCI-H460 (lung); NCI-H460, 48 h) [µg/mL] | GI50 (KM20L2 (colon); KM-20L2, 48 h) [µg/mL] | GI50 (DU-145 (prostate); DU-145, 48 h) [µg/mL] |
| --- | --- | --- | --- | --- | --- | --- | --- | --- | --- | --- | --- | --- | --- | --- | --- |
| – | – | – | – | – | – | – | COc1ccc(C2C3=C(COC3=O)Nc3cc(OC)c(OC)c(OC)c32)cc1O[Si](C)(C)C(C)(C)C (stereo not shown) | 169 to 171 °C | – | – | – | – | – | – | – |
| 2 (≈ 4.53 µM) | 0.6 (≈ 1.36 µM) | 0.37 (≈ 0.838 µM) | 0.41 (≈ 0.929 µM) | 0.58 (≈ 1.31 µM) | 0.52 (≈ 1.18 µM) | 1.3 (≈ 2.94 µM) | COc1cc(C2C3=C(COC3=O)N(CCO)c3cc4c(cc32)OCO4)cc(OC)c1OC (stereo not shown) [Compound 13, 6,7-Methylenedioxy-4-(2-hydroxy-ethyl)-9-(3,4,5-trimethoxyphenyl)-4,9-dihydro-3H-furo[3,4-b]quinolin-1-one] | – | – | – | – | – | – | – | – |
| – | – | – | – | – | – | – | COc1cc(C2C3=C(COC3=O)N(CCCO)c3cc4c(cc32)OCO4)cc(OC)c1OC (stereo not shown) [Compound 14, 6,7-Methylenedioxy-4-(3-hydroxy-propyl)-9-(3,4,5-trimethoxyphenyl)-4,9-dihydro-3H-furo[3,4-b]quinolin-1-one] | 269 to 272 °C (dec.) | 0.28 (≈ 0.615 µM) | 0.48 (≈ 1.05 µM) | 0.34 (≈ 0.746 µM) | 0.36 (≈ 0.79 µM) | 0.33 (≈ 0.725 µM) | 0.38 (≈ 0.834 µM) | 0.49 (≈ 1.08 µM) |
| – | – | – | – | – | – | – | COc1cc(C2C3=C(COC3=O)Nc3cc(OC)c(OC)c(OC)c32)cc(OC)c1OC (stereo not shown) [Compound 15, 6,7,8-Trimethoxy-9-(3,4,5-trimethoxyphenyl)-4,9-dihydro-3H-furo[3,4-b]quinolin-1-one] | 137 to 139 °C | 1.3 (≈ 2.93 µM) | 5.6 (≈ 12.6 µM) | 1.7 (≈ 3.83 µM) | 3.6 (≈ 8.12 µM) | 3.6 (≈ 8.12 µM) | – | 3.3 (≈ 7.44 µM) |
| – | – | – | – | – | – | – | COc1cc(C2C3=C(COC3=O)Nc3cc(OC)c(OC)c(OC)c32)cc(Br)c1OC (stereo not shown) [Compound 15a, 6,7,8-Trimethoxy-9-(3-bromo-4,5-trimethoxyphenyl)-4,9-dihydro-3H-furo[3,4-b]quinolin-1-one] | 175 to 177 °C | 0.11 (≈ 0.223 µM) | 0.56 (≈ 1.14 µM) | 0.12 (≈ 0.244 µM) | 0.11 (≈ 0.223 µM) | 0.35 (≈ 0.711 µM) | – | 0.42 (≈ 0.853 µM) |
| – | – | – | – | – | – | – | COc1ccc(C2C3=C(COC3=O)Nc3cc(OC)c(OC)c(OC)c32)cc1O (stereo not shown) [Compound 15c, 6,7,8-Trimethoxy-9-(3-hydroxy-4-methoxyphenyl)-4,9-dihydro-3H-furo[3,4-b]quinolin-1-one] | – | 0.78 (≈ 1.95 µM) | 6.5 (≈ 16.3 µM) | 7 (≈ 17.5 µM) | 7.3 (≈ 18.3 µM) | 10.1 (≈ 25.3 µM) | – | > 10 |
| – | – | – | – | – | – | – | O=C1OCC2=C1C(c1cccc3c1OCO3)c1cc3c(cc1N2)OCO3 (stereo not shown) [Compound 15d, 6,7-Methylenedioxy-9-(2,3-methylenedioxyphenyl)-4,9-dihydro-3H-furo[3,4-b]quinolin-1-one] | 324 to 327 °C | 0.17 (≈ 0.484 µM) | 0.065 (≈ 0.185 µM) | 0.0039 (≈ 0.0111 µM) | 0.0089 (≈ 0.0253 µM) | 0.021 (≈ 0.0598 µM) | – | 0.041 (≈ 0.117 µM) |
| – | – | – | – | – | – | – | COc1cc(C2C3=C(COC3=O)N(C)c3cc4c(cc32)OCO4)cc(OC)c1OC (stereo not shown) [Compound 16, 6,7-Methylenedioxy-4-methyl-9-(3,4,5-trimethoxyphenyl)-4,9-dihydro-3H-furo[3,4-b]quinolin-1-one] | – | 0.027 (≈ 0.0656 µM) | 0.049 (≈ 0.119 µM) | 0.034 (≈ 0.0826 µM) | 0.029 (≈ 0.0705 µM) | 0.032 (≈ 0.0778 µM) | 0.032 (≈ 0.0778 µM) | 0.026 (≈ 0.0632 µM) |
| – | – | – | – | – | – | – | COc1cc(C2C3=C(COC3=O)N(C3CCC3)c3cc4c(cc32)OCO4)cc(OC)c1OC (stereo not shown) [Compound 17, 6,7-Methylenedioxy-4-(cyclobutyl)-9-(3,4,5-trimethoxyphenyl)-4,9-dihydro-3H-furo[3,4-b]quinolin-1-one] | 224 to 226 °C | 0.24 (≈ 0.532 µM) | 0.04 (≈ 0.0886 µM) | 0.026 (≈ 0.0576 µM) | 0.026 (≈ 0.0576 µM) | 0.028 (≈ 0.062 µM) | 0.032 (≈ 0.0709 µM) | 0.047 (≈ 0.104 µM) |
